For one experiment, the system named is COS Cell. Nature of the experiment: COS Cell IC50 (Cell-Based Assay). The procedure:
(§1) FPT IC50 (inhibition of farnesyl protein transferase, in vitro enzyme assay), GGPT IC50 (inhibition of geranylgeranyl protein transferase, in vitro enzyme assay) and COS Cell IC50 (Cell-Based Assay) were determined following the assay procedures described in WO 95/10516, published Apr. 20, 1995. Cell Mat Assay, and anti-tumor activity (in vivo anti-tumor studies) could be determined by the assay procedures described in WO 95/10516. The disclosure of WO 95/10516 is incorporated herein by reference thereto.

Experiment [1] deals with farnesyl protein transferase. Nature of the experiment: FPT IC50 (inhibition of farnesyl protein transferase, in vitro enzyme assay). Format: biochemical. An excerpt:
In Table 2 "Ex. No." stands for "Example Number". In Table 2, FPT IC50 results are less indicated otherwise.

Experiment [2] concerns the target farnesyl protein transferase (K-ras) (Homo sapiens, UniProt P49354+P49356). The experiment can be described thus: FPT IC50 (K-ras), in vitro enzyme assay. The experiment is classed as biochemical. The procedure:
as §1

The target in experiment [3] is T1, geranylgeranyl protein transferase (Rattus norvegicus, UniProt P53610+Q04631).
T1 construct: from tissue; host or cells: rat brain (own knowledge of the cited WO 95/10516)
The experiment can be described thus: GGPT IC50 (inhibition of geranylgeranyl protein transferase, in vitro enzyme assay). Format: biochemical. The procedure:
as §1

The subject of the next experiment is Human tumor cells. The experiment can be described thus: Soft Agar Assay (anchorage-independent growth). Format: cell-based. The following applies: Homo sapiens, Table 4; colonies after 10-16 days at 37° C. The procedure: Soft Agar Assay: Anchorage-independent growth is a characteristic of tumorigenic cell lines. Human tumor cells are suspended in growth medium containing 0.3% agarose and an indicated concentration of a farnesyl transferase inhibitor. The solution is overlayed onto growth medium solidified with 0.6% agarose containing the same concentration of farnesyl transferase inhibitor as the top layer. After the top layer is solidified, plates are incubated for 10-16 days at 37° C. under 5% CO2 to allow colony outgrowth. […] Colonies can be counted and the IC50 's can be determined.

The target of experiment [4] is farnesyl protein transferase (H-ras) (Homo sapiens, UniProt P49354+P49356). Nature of the experiment: FPT IC50 (H-ras), in vitro enzyme assay. Format: biochemical. The procedure: as §1

Where “and” joins values, the source holds several entries; their conditions need not be identical. Equal values may be shown once. Read-outs that look alike come from different tables or passages of the source. Some results are limits rather than exact numbers.

Usually IC50 stands for the concentration needed to halve the response being measured. With `N=C(NCc1cccnc1)N1CCC(CC(=O)N2CCC(C3c4ccc(Cl)c(Br)c4CCc4cc(Br)cnc43)CC2)CC1` (centres unmarked) [Example 29], the IC50 with COS Cell (Table 2) is over 1000 nM; in experiment [1] (Table 2), 11 nM; in experiment [2] (Table 2) it was 782 nM; in experiment [3], 7500 nM.
Regarding `N#CN1CCC(CC(=O)N2CCC([C@H]3c4ncc(Br)cc4CCc4cc(Cl)cc(Br)c43)CC2)CC1` [Compound 98.0-B], the IC50 with COS Cell (Table 4) is 12 nM; in experiment [2], 17 nM; in the experiment on Human tumor cells it was 100 nM; in experiment [4] it was 2.3 nM and 2.4 nM.
For `O=CN1CCC(CC(=O)N2CCC([C@H]3c4ncc(Br)cc4CCc4cc(Cl)cc(Br)c43)CC2)CC1` [Compound 5.0-B], the results for the half-maximal inhibitory concentration (IC50) (in the experiment with COS Cell (Table 4); in experiment [1] (Table 3); in experiment [2]) were 8 nM, 3.7 nM and 16 nM, respectively.
As for `N#CN1CCC(CC(=O)N2CCC(C3c4ccc(Cl)c(Br)c4CCc4cc(Br)cnc43)CC2)CC1` (centres unmarked) [Example 30], the IC50 was determined as 460 nM in the experiment with COS Cell (Table 2), 7 nM in experiment [1] (Table 2) and 38.7 nM in experiment [2] (Table 2).
With `N=C(Oc1ccccc1)N1CCC(CC(=O)N2CCC([C@H]3c4ncc(Br)cc4CCc4cc(Cl)cc(Br)c43)CC2)CC1` [Example 25], the half-maximal inhibitory concentration (IC50) in the experiment with COS Cell (Table 2) was 24 nM; with COS Cell (Table 4), 24 nM; in experiment [1] (Table 2), 8.8 nM; in experiment [2] it was 46 nM; in the experiment on Human tumor cells, 200 nM.
Compound `N=C(Oc1ccccc1)N1CCC(CC(=O)N2CCN(C3c4ccc(Cl)cc4CCc4cc(Br)cnc43)CC2)CC1` (centres unmarked) [Example 3, PHENYL 4-[2-[4-(3-BROMO-8-CHLORO-6,11-DIHYDRO-5 H-BENZO[5,6]CYCLOHEPTA1,2-b]PYRIDIN-11-YL)-1-PIPERAZINYL]-2-OXOETHYL-1-PIPERIDINECARBOXIMIDATE] came in with an IC50 in experiment [4] of 290 nM.
Turning to `O=C(CC1CCN(C(=O)N2CCOCC2)CC1)N1CCC([C@H]2c3ncc(Br)cc3CCc3cc(Cl)cc(Br)c32)CC1` [Compound 100.0-B], the values for the IC50 (in the experiment on COS Cell (Table 4); in the experiment with Human tumor cells; in experiment [4]) were under 10 nM, 380 nM and 5.5 nM, respectively.
For `CC(=O)OC[C@H]1O[C@@H](NC(=S)N2CCC(CC(=O)N3CCC([C@H]4c5ncc(Br)cc5CCc5cc(Cl)cc(Br)c54)CC3)CC2)[C@H](OC(C)=O)[C@@H](OC(C)=O)[C@@H]1OC(C)=O` [Compound 4.0-B], the IC50 was 1000 nM in the experiment with COS Cell (Table 4), 29 nM in experiment [2] and 12 nM in experiment [4].
As to `NC(=O)c1cncc(C(=O)N2CCC(CC(=O)N3CCC([C@H]4c5ncc(Br)cc5CCc5cc(Cl)cc(Br)c54)CC3)CC2)c1` [Compound 29.0-B], the figures for the IC50 (with COS Cell (Table 4); in experiment [1] (Table 3); in the experiment with Human tumor cells) were 21 nM, 2.2 nM and 500 nM, respectively.
Take `CCn1cccc1C(=O)N1CCC(CC(=O)N2CCC([C@H]3c4ncc(Br)cc4CCc4cc(Cl)cc(Br)c43)CC2)CC1` [Example 54]: the figures for the IC50 (in the experiment on COS Cell (Table 4); in experiment [1] (Table 3); in the experiment on Human tumor cells) were 40 nM, 7.8 nM and over 500 nM, respectively.
